The values that follow are results of earlier work, collected in PubChem BioAssay AID1259410 (Chemical Carcinogenesis Research Information System (CCRIS), 2018).

In this data set the test system is rodent tumor promotion studies, tumor incidence. Description: CCRIS tumor promotion studies.

Square brackets hold non-standard residues; d marks the D form. Peptide text beside a SMILES is read from it. sY = N[C@@H](Cc1ccc(OS(=O)(=O)O)cc1)C(=O)O; pGlu = O=C1CC[C@@H](C(=O)O)N1

Regarding `COC(=O)[C@@H](N)Cc1ccc(O)cc1`, the outcome (Carcinogen: N-METHYL-N'-NITRO-N-NITROSOGUANIDINE, 70-25-7, Doses [Carcinogen]: 25 UG/ML IN DRINKING WATER FOR 25 WK, Doses [Promoter]: 0, 512 MG/KG BW IN 0.9% SALINE 1/2 D FOR 26 WK BEGINNING 1 WK POST CARCINOGEN TREATMENT (STUDY DURATION: 52 WK), Route [Carcinogen]: ORAL, Route [Promoter]: SUBCUTANEOUS, Species: RAT, Strain/Sex: WISTAR/MALE) is “stomach: adenocarcinoma” and the outcome (Carcinogen: N-METHYL-N'-NITRO-N-NITROSOGUANIDINE, 70-25-7, Doses [Carcinogen]: 50 UG/ML IN DRINKING WATER FOR 20 WK, Doses [Promoter]: 0, 2 ML/KG IN A VOLUME OF 2 ML/KG 0.9% NACL AT DOSE LEVEL OF 512 MG/KG/BW 1/2 D FOR 32 WK (STUDY DURATION: 32 WK), Route [Carcinogen]: ORAL, Route [Promoter]: SUBCUTANEOUS, Species: RAT, Strain/Sex: WISTAR/MALE) was “stomach: adenocarcinoma”. In the case of `CCC1(CCCCCCCCCCCCC(=O)OC2C(C)C3(O)C(C=C(CO)CC4(O)C(=O)C(C)=CC43)C3C(C)(C)C23OC(C)=O)OCC(C)(C)N1[O]` (stereo not given), for the setting “Carcinogen: 7,12-DIMETHYLBENZ[A]ANTHRACENE, 57-97-6, Doses [Carcinogen]: 100 NMOL ONCE, Doses [Promoter]: 0, 20 NMOL 2/WK FOR 24 WK BEGINNING 1 WK POST CARCINOGEN DOSE (STUDY DURATION: 25 WK), Route [Carcinogen]: DERMAL, Route [Promoter]: DERMAL, Species: MOUSE, Strain/Sex: NMRI/FEMALE”, the outcome was “skin: tumor”. With `COC[C@@H]([C@H](O)[C@H](O)C(=O)NCC[C@H](C)c1nc(/C=C/C[C@@H]2O[C@]3(C[C@@H](O)[C@@H]2C)O[C@H]([C@H](C[C@H](O)[C@H](C)[C@H](O)[C@H](C)/C=C(C)/C(C)=C/C=C/C(C)=C\C#N)OC)[C@H](OP(=O)(O)O)C3(C)C)co1)N(C)C`, the outcome (Carcinogen: 7,12-DIMETHYLBENZ[A]ANTHRACENE, 57-97-6, Doses [Carcinogen]: 100 UG IN 0.1 ML ACETONE TO THE DORSAL SKIN ONCE, Doses [Promoter]: 0, 0.1, 1 UG IN 0.1 ML ACETONE TO THE DORSAL SKIN 2/WK FOR 29 WK BEGINNING 1 WK POST CARCINOGEN DOSE (STUDY DURATION: 30, Doses [Promoter]: 0, 0.1, 1 UG IN 0.1 ML ACETONE TO THE DORSAL SKIN 2/WK FOR 29 WK BEGINNING 1 WK POST CARCINOGEN DOSE (STUDY DURATION: 30, Route [Carcinogen]: DERMAL, Route [Promoter]: DERMAL, Species: MOUSE, Strain/Sex: CD-1/FEMALE) was “skin: papilloma”. On to `CSCC[C@H](NC(=O)[C@H](Cc1c[nH]c2ccccc12)NC(=O)CNC(=O)[C@@H](NC(=O)[C@H](Cc1ccc(OS(=O)(=O)O)cc1)NC(=O)[C@H](CC(=O)O)NC(=O)[C@H](CCC(N)=O)NC(=O)[C@@H]1CCC(=O)N1)[C@@H](C)O)C(=O)N[C@@H](CC(=O)O)C(=O)N[C@@H](Cc1ccccc1)C(N)=O` ([pGlu]QD[sY]TGWMDF-NH2), for which the outcome is recorded as “pancreas: carcinoma” (Carcinogen: 7,12-DIMETHYLBENZ[A]ANTHRACENE, 57-97-6, Doses [Carcinogen]: 2-3 MG ONCE, Doses [Promoter]: 0, 5 UG/KG 2/D FOR 15 D POST CARCINOGEN TREATMENT (STUDY DURATION: 6 MO), Route [Carcinogen]: PANCREATIC IMPLANT, Route [Promoter]: SUBCUTANEOUS, Species: RAT, Strain/Sex: SPRAGUE-DAWLEY/MALE); “glandular stomach: adenocarcinoma” (Carcinogen: N-METHYL-N'-NITRO-N-NITROSOGUANIDINE, 70-25-7, Doses [Carcinogen]: 50 UG/ML IN DRINKING WATER FOR 20 WK, Doses [Promoter]: 0, 10 UG/KG IN OLIVE OIL 1/2 D FOR 20 WK BEGINNING 3 D AFTER CARCINOGEN DOSE (STUDY DURATION: 52 WK), Route [Carcinogen]: ORAL, Route [Promoter]: SUBCUTANEOUS, Species: RAT, Strain/Sex: WISTAR/MALE); “stomach: adenocarcinoma” (Carcinogen: N-METHYL-N'-NITRO-N-NITROSOGUANIDINE, 70-25-7, Doses [Carcinogen]: 50 UG/ML IN DRINKING WATER FOR 25 WK, Doses [Promoter]: 2 UG/KG IN OLIVE OIL 1/2 D FOR 27 WK ADMINISTERED POST CARCINOGEN DOSE (STUDY DURATION: 52 WK), Route [Carcinogen]: ORAL, Route [Promoter]: SUBCUTANEOUS, Species: RAT, Strain/Sex: WISTAR/MALE). For `Oc1ccc(Br)cc1`, under “Carcinogen: 7,12-DIMETHYLBENZ(A)ANTHRACENE, Doses [Carcinogen]: TOP, Route [Carcinogen]: DERMAL, Route [Promoter]: DERMAL, Species: MOUSE, Strain/Sex: FEMALE”, the outcome was “integumentary system (skin)”. `CCC(=O)Oc1ccc2c(c1)CC[C@@H]1[C@@H]2CC[C@]2(C)[C@@H](OC(=O)CC)CC[C@@H]12`: the outcome (Carcinogen: 1,2-DIMETHYLHYDRAZINE, 540-73-8, Doses [Carcinogen]: 8 MG/KG BW 1/WK FOR 20 WK, Doses [Promoter]: 0, 0.1 ML OF A SOLUTION IN OLIVE OIL 1/WK FOR 30 WK ADMINISTERED 1 DAY PRIOR TO EACH CARCINOGEN DOSE AND CONTINUING FOR, Route [Carcinogen]: SUBCUTANEOUS, Route [Promoter]: SUBCUTANEOUS, Species: MOUSE, Strain/Sex: C3H/FEMALE) was “uterus: sarcoma”. Regarding `Cc1cccc(Nc2cc(Cl)nc(SCC(=O)O)n2)c1C`, the outcome is “liver: adenoma” (Carcinogen: 2-ACETYLAMINOFLUORENE, 53-96-3, Doses [Carcinogen]: 0.02% IN DIET FOR 8 WK, Doses [Promoter]: 0, 0.1% IN DIET FOR 37 WK BEGINNING 2 WK POST CARCINOGEN TREATMENT (STUDY DURATION: 39 WK), Route [Carcinogen]: ORAL, Route [Promoter]: ORAL, Species: RAT, Strain/Sex: F344/MALE); “liver: adenoma” (Carcinogen: DIETHYLNITROSAMINE, 55-18-5, Doses [Carcinogen]: 150 MG/KG BW ONCE, Doses [Promoter]: 0, 0.1% IN DIET FOR 37 WK BEGINNING 2 WK POST CARCINOGEN TREATMENT (STUDY DURATION: 39 WK), Route [Carcinogen]: INTRAPERITONEAL, Route [Promoter]: ORAL, Species: RAT, Strain/Sex: F344/MALE); “liver: hepatocellular carcinoma or neoplastic nodule” (Carcinogen: DIETHYLNITROSAMINE, 55-18-5, Doses [Carcinogen]: 150 MG/KG ONCE, Doses [Promoter]: 0.1% IN DIET BEGINNING 2 WK POST CARCINOGEN DOSE AND CONTINUING FOR 54 WK (STUDY DURATION: 56 WK), Route [Carcinogen]: INTRAPERITONEAL, Route [Promoter]: ORAL, Species: RAT, Strain/Sex: F344/MALE); “liver: hepatocellular carcinoma or neoplastic nodule” (Carcinogen: DIETHYLNITROSAMINE, 55-18-5, Doses [Carcinogen]: 150 MG/KG ONCE, Doses [Promoter]: 0.1% IN DIET BEGINNING 2 WK POST CARCINOGEN DOSE FOR 71 WK FOLLOWED BY CONTROL DIET FOR DURATION OF STUDY (STUDY DURATIO, Route [Carcinogen]: INTRAPERITONEAL, Route [Promoter]: ORAL, Species: RAT, Strain/Sex: F344/MALE); “liver: hepatocellular carcinoma or neoplastic nodule” (Carcinogen: DIETHYLNITROSAMINE, 55-18-5, Doses [Carcinogen]: 150 MG/KG ONCE, Doses [Promoter]: 0.1% IN DIET BEGINNING 11 WK POST CARCINOGEN DOSE AND CONTINUING FOR DURATION OF STUDY (STUDY DURATION: 56 WK), Route [Carcinogen]: INTRAPERITONEAL, Route [Promoter]: ORAL, Species: RAT, Strain/Sex: F344/MALE). Consider `CC(N)Cc1ccccc1` (stereo not given), for which the outcome (Carcinogen: BITTNER MAMMARY TUMOR VIRUS, Doses [Promoter]: 0, 0.4 MG/KG/D IN 1 ML/KG OF 0.9% SALINE FOR DURATION OF STUDY (STUDY DURATION: 730 D), Route [Promoter]: SUBCUTANEOUS, Species: MOUSE, Strain/Sex: C3H/FEMALE) is “mammary gland: tumor”.
